Data set [1] relates to Pseudomonas aeruginosa. The data set is described as follows: Antibacterial activity against Pseudomonas aeruginosa ATCC 27853 infected in C57BL/6 mouse pneumonia model assessed as log reduction in bacterial load in lung at 5 mg/kg, ip administered for 1 to 48 hrs and measured after 3 days. Type of data set: functional. The note with it: time 1-120 hrs.
In data set [2] the test system is Pseudomonas aeruginosa. Nature of the data set: Antibacterial activity against Pseudomonas aeruginosa ATCC 27853 infected in C57BL/6 mouse pneumonia model assessed as decrease in TNF-alpha level in lung at 2.5 to 10 mg/kg, ip administered for 1 to 48 hrs and measured after 3 days. Type of data set: functional, organism-based. The note with it: dose 2.5-10 mg/kg, time 1-120 hrs.

Data set [3] can be described thus: Toxicity in mouse assessed as animal survival at 20 mg/kg, ip measured for 7 days. Type of data set: organism-based. As to conditions: in vivo, 168 h, time 7 day.
Data set [4] deals with Pseudomonas aeruginosa. Nature of the data set: Antibacterial activity against Pseudomonas aeruginosa ATCC 27853 infected in C57BL/6 mouse pneumonia model assessed as reduction in bacterial load in lung at 10 mg/kg, ip administered for 1 to 48 hrs and measured after 3 days. Type of data set: functional, organism-based. As to conditions: time 1-120 hrs.
Data set [5] concerns Cell membrane. The data set is described as follows: Induction of membrane disruption in Pseudomonas aeruginosa ATCC 27853 assessed as membrane blebbing at 2 to 4 times MIC incubated for 24 hrs by SEM analysis. Type of data set: cell membranes.
In data set [6] the test system is Staphylococcus aureus. The data set is described as follows: Antibacterial activity against methicillin-resistant Staphylococcus aureus ATCC 33591 infected in full-thickness wound BALB/c mouse model assessed as reduction in inflammatory infiltration at 1 mg/kg, ip administered for 1 to 48 hrs and measured after 3 days. The data set is classed as functional, organism-based. The note with it: time 1-120 hrs.

Data set [7] has as its system Staphylococcus aureus. Nature of the data set: Antibacterial activity against […] Staphylococcus aureus ATCC 33591. The data set is classed as functional, organism-based.
Data set [8] can be described thus: Toxicity in mouse assessed as skin injury at 40 mg/kg, sc measured for 5 to 1440 mins by H and E staining analysis. Type of data set: organism-based. As to conditions: in vivo, time 5-1440 min.
Data set [9] is described as follows: Toxicity in mouse assessed as heart lesion at 20 mg/kg, ip measured for 30 to 60 mins by H and E staining based analysis. As to conditions: in vivo, time 30-60 min. The data set is classed as organism-based.
In data set [10] the test system is Pseudomonas aeruginosa. Nature of the data set: Antibacterial activity against Pseudomonas aeruginosa ATCC 27853 infected in C57BL/6 mouse pneumonia model assessed as decrease in IL-1beta level in lung at 2.5 to 10 mg/kg, ip administered for 1 to 48 hrs and measured after 3 days. As to conditions: dose 2.5-10 mg/kg, time 1-120 hrs. The data set is classed as functional, organism-based.

In data set [11] the test system is Cell membrane. Nature of the data set: Induction of membrane depolarization in Pseudomonas aeruginosa ATCC 27853 assessed as increase in fluorescence intensity by DiSC35 dye-based fluorescence assay. Type of data set: cell membranes.
Data set [12] concerns Cell membrane. Nature of the data set: Induction of membrane disruption in Staphylococcus aureus ATCC 33591 assessed as membrane lysis at 2 to 4 times MIC incubated for 24 hrs by SEM analysis. Type of data set: cell membranes.
The subject of data set [13] is Staphylococcus aureus. The data set is described as follows: Additive antibacterial activity against Staphylococcus aureus ATCC 33591 assessed as fractional inhibitory concentration index in presence of polymyxin B by checkerboard assay. The data set is classed as functional.
Data set [14] can be described thus: Toxicity in mouse assessed as kidney lesion at 20 mg/kg, ip measured for 30 to 60 mins by H and E staining based analysis. The data set is classed as organism-based. As to conditions: in vivo, time 30-60 min.
For data set [15], the system named is Cell membrane. Nature of the data set: Induction of membrane disruption in Staphylococcus aureus ATCC 33591 assessed as membrane blebbing at 2 to 4 times MIC incubated for 24 hrs by SEM analysis. Type of data set: cell membranes.
For data set [16], the system named is Cell membrane. Nature of the data set: Induction of membrane disruption in Staphylococcus aureus ATCC 33591 assessed as membrane shrinkage at 2 to 4 times MIC incubated for 24 hrs by SEM analysis. Type of data set: cell membranes.
Data set [17] in a line: Toxicity in mouse assessed as spleen lesion at 20 mg/kg, ip measured for 30 to 60 mins by H and E staining based analysis. The data set is classed as organism-based. As to conditions: in vivo, time 30-60 min.
The test system of data set [18] is Pseudomonas aeruginosa. Nature of the data set: Additive antibacterial activity against multidrug-resistant Pseudomonas aeruginosa 124 assessed as fractional inhibitory concentration index in presence of polymyxin B by checkerboard assay. Type of data set: functional.
Data set [19] deals with Pseudomonas aeruginosa. Nature of the data set: Additive antibacterial activity against multidrug-resistant Pseudomonas aeruginosa 124 assessed as fractional inhibitory concentration index in presence of ceftazidime by checkerboard assay. The data set is classed as functional.
For data set [20], the system named is Staphylococcus aureus. Nature of the data set: Antibacterial activity against methicillin-resistant Staphylococcus aureus ATCC 33591 infected in full-thickness wound BALB/c mouse model assessed as wound healing at 0.25 to 1 mg/kg, ip administered for 1 to 48 hrs and measured after 10 days. Type of data set: functional, organism-based. The note with it: dose 0.25-1 mg/kg, time 1-288 hrs.

The subject of data set [21] is Staphylococcus aureus. The data set is described as follows: Synergistic antibacterial activity against methicillin-resistant Staphylococcus aureus S5 assessed as fractional inhibitory concentration index in presence of polymyxin B by checkerboard assay. The data set is classed as functional.
The test system of data set [22] is Staphylococcus aureus. The data set is described as follows: Synergistic antibacterial activity against Staphylococcus aureus ATCC 33591 assessed as fractional inhibitory concentration index in presence of polymyxin B by checkerboard assay. The data set is classed as functional.

Calls of active or inactive are those of the source. The rule behind the calls is not given here. Numbered stars: 1 amine (or outer) side, 2 acyl side, 3 side chain; on linkers, the order of the positions; unused ones are H or OH. Square brackets hold non-standard residues; d marks the D form. Peptide text beside a SMILES is read from it. * marks the point of attachment. X3 = CC(C)C[C@@H](CN(CC(N)=O)S(=O)(=O)c1ccc(C(F)(F)F)cc1)N*; X2 = CC(C)C[C@H](N)CN(CC(=O)[*:2])[*:1]; X1 = O=S(=O)(c1ccc(C(F)(F)F)cc1)*

Turning to `CC(C)C[C@H](N)CN(CC(=O)N[C@@H](CCCCN)C(=O)N[C@@H](CC(C)C)C(=O)N[C@@H](CC(C)C)C(=O)N[C@@H](CCCCN)C(=O)N[C@@H](CCCCN)C(=O)N[C@@H](CC(C)C)C(=O)N[C@@H](CC(C)C)C(N)=O)S(=O)(=O)c1ccc(C(F)(F)F)cc1` (X1-[X2]KLLKKLL-NH2), in the data set with Pseudomonas aeruginosa [1], the “log(activity)” value came to 4.51. The result in the data set with Pseudomonas aeruginosa [2], in the data set with Pseudomonas aeruginosa [4], in the data set with Cell membrane [5], with Staphylococcus aureus [6], with Staphylococcus aureus [7] and with Pseudomonas aeruginosa [10] was Active. Besides, the result in the data set with Cell membrane [12], in the data set with Cell membrane [15], in the data set on Cell membrane [16] and in the data set on Staphylococcus aureus [20] was Active. Also, the Activity entry in data set [3] is “Non-Toxic”; in data set [8], “Non-Toxic”; in data set [9] it was “Non-Toxic”; in the data set on Cell membrane [11] it was “Dose-Dependent Effect”; in [14] it was “Non-Toxic”; in [17] it was “Non-Toxic”. The “fractional inhibitory concentration index (FICI)” value with Staphylococcus aureus [13] was 1; in the data set on Pseudomonas aeruginosa [18], 0.5; in the data set with Pseudomonas aeruginosa [19] it was 1.

Turning to `CC(C)C[C@@H](CN(CC(N)=O)S(=O)(=O)c1ccc(C(F)(F)F)cc1)NC(=O)[C@H](CCCCN)NC(=O)[C@H](CCCCN)NC(=O)[C@H](CC(C)C)NC(=O)[C@H](CC(C)C)NC(=O)[C@H](CCCCN)NC(=O)[C@H](CC(C)C)NC(=O)[C@@H](N)Cc1ccccc1` (H-FLKLLKK-X3), the “fractional inhibitory concentration index (FICI)” value with Staphylococcus aureus [21] is reported as 0.75; in the data set on Staphylococcus aureus [22], 0.5.
